Results as given in ChEMBL document CHEMBL1156061, “Design and synthesis of substituted nicotinamides as inhibitors of soluble epoxide hydrolase” (Bioorg Med Chem Lett, 2009).

Legend:
[1] = Metabolic stability in rat liver microsomes assessed as half life; assay type: ADME, Microsome
[2] = target: T1, Bifunctional epoxide hydrolase 2 (Rattus norvegicus, UniProt P80299); experiment: Inhibition of rat sEH
T1 sequence (P80299 whole entry): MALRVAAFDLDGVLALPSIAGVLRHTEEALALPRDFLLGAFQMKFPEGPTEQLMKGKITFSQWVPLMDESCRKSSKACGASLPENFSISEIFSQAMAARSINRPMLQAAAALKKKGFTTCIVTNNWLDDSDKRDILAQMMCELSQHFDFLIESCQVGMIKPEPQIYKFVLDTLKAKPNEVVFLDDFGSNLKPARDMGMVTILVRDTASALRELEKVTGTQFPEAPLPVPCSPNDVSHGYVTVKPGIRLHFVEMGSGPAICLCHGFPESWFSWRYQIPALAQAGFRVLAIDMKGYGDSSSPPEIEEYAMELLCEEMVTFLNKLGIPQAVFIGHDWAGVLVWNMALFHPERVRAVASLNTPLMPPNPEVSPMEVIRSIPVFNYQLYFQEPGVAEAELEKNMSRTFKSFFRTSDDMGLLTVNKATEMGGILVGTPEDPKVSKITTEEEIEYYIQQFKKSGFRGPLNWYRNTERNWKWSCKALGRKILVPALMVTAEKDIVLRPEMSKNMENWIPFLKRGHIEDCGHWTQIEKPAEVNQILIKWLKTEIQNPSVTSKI

[3] = Metabolic stability in human liver microsomes assessed as half life; assay type: ADME, Microsome
[4] = target: T2, Bifunctional epoxide hydrolase 2 (Homo sapiens, UniProt P34913); experiment: Inhibition of human soluble EH
T2 sequence (P34913 whole entry): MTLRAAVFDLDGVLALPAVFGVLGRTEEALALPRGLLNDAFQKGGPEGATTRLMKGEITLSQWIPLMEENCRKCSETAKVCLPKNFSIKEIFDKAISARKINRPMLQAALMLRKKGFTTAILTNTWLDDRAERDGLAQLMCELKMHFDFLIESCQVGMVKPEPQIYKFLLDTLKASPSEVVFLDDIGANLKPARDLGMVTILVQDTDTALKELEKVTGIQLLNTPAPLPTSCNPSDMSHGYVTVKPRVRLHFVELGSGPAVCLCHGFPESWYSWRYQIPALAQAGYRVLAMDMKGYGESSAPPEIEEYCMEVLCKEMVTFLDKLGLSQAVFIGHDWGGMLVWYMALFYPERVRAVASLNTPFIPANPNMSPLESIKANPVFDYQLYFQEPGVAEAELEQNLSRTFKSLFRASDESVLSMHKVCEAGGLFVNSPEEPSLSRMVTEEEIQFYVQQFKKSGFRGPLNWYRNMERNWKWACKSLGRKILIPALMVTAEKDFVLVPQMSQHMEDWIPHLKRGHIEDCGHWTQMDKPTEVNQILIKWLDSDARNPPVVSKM

[5] = target: T2, Bifunctional epoxide hydrolase 2; experiment: Inhibition of soluble EH in human HepG2 cells by cellular assay; assay type: cell-based
[6] = Plasma concentration in Sprague-Dawley rat at 5 mg/kg, po after 1 hr; assay type: ADME, organism-based; design: dose 5 mg/kg, route oral

Row | SMILES | half-life [1] [min] | IC50 [2] [nM] | half-life [3] [min] | IC50 [4] [nM] | IC50 [5] [nM] | concentration at 1 h [6] [nM]
1 | O=C(NCCC(c1ccccc1)c1ccccc1)c1ccc(OCC(F)(F)F)nc1 | < 3 | 7.8 | 38 | 5.4 |  | 
2 | O=C(NC1CCOCC1)C1CCN(C(=O)NCc2ccc(Cl)cc2Cl)CC1 | 104 |  | 300 |  |  | 
3 | O=C(NCc1ccc(Cl)cc1)c1ccc(OCCC(F)(F)F)nc1 |  | 7 |  |  |  | 
4 | CNS(=O)(=O)c1ccc(CNC(=O)c2ccc(OCC(F)(F)F)nc2)c(Cl)c1 | 25 | 19 | 81 | 14 | 31 | 
5 | CS(=O)(=O)c1ccc(CNC(=O)c2ccc(OCCC(F)(F)F)nc2)cc1 | 173 | 25 | 156 | 110 |  | 
6 | Nc1ccc(C(=O)NCc2ccc(Cl)cc2Cl)cn1 | 44 | 430 | 46 |  |  | 
7 | O=C(NCc1ccccc1OC(F)(F)F)c1ccc(OCC(F)(F)F)nc1 | 7 | 6 | 78 |  |  | 
8 | N#Cc1ccc(CNC(=O)c2ccc(OCC(F)(F)F)nc2)c(Cl)c1 | 105 |  | 188 | 14 | 12 | 
9 | CCOCCn1cc(C(=O)NCCC(c2ccccc2)c2ccccc2)ccc1=O | 5 | 4 | 4 |  |  | 
10 | O=C(NCc1ccc(Cl)cc1Cl)c1ccc(CCN2CCCC2)nc1 |  |  |  | 1500 |  | 
11 | CS(=O)(=O)c1ccc(CNC(=O)c2ccc(OCC(F)(F)F)nc2)c(Cl)c1 | 75 | 16 | 96 | 15 | 28 | 
12 | Nc1ccc(C(=O)NCCC(c2ccccc2)c2ccccc2)cn1 | 5 | 8.5 | 33 |  |  | 
13 | O=C(NCc1ccc(Cl)cc1Cl)c1ccc(OCC(F)(F)F)nc1 | 7 | 7.3 | 178 | 6.6 | 18 | 2500
14 | O=C(NCc1ccccc1)c1ccc(OCCC(F)(F)F)nc1 |  |  |  | 1200 |  | 
15 | CS(=O)(=O)c1cc(Cl)ccc1CNC(=O)c1ccc(OCC(F)(F)F)nc1 | 99 | 11 | 300 |  |  | 

Continued, values first:

Row | half-life [1] [min] | IC50 [2] [nM] | half-life [3] [min] | IC50 [4] [nM] | IC50 [5] [nM] | concentration at 1 h [6] [nM] | SMILES
16 | 41 | 9 | 46 | 18 |  |  | O=C(NCCC(c1ccccc1)c1ccccc1)c1ccc(CCN2CCCC2)nc1
17 |  |  |  | 270 |  |  | CS(=O)(=O)c1ccccc1CNC(=O)c1ccc(OCCC(F)(F)F)nc1
18 | 17 | 7 | 300 | 12 | 0.1 |  | O=C(NCc1ccc(Br)cc1OC(F)(F)F)c1ccc(OCC(F)(F)F)nc1
19 | 19 | 6 | 24 | 16 |  |  | CCOCCn1cc(C(=O)NCc2ccc(Cl)cc2Cl)ccc1=O
20 | 7 | 10 | 96 | 8.1 |  |  | O=C(NCCC(c1ccccc1)c1ccccc1)c1ccc(=O)[nH]c1
21 |  | 4.3 |  | 12 | 24 |  | CS(=O)(=O)c1ccc(-c2ccc(CNC(=O)c3ccc(OCCC(F)(F)F)nc3)cc2)cc1
22 | 191 | 330 | 78 | 400 |  |  | O=C(NCc1ccc(Cl)cc1Cl)c1ccc(=O)[nH]c1
